Test results from patent US7375180B2, “Methods and compositions related to IRM compounds and Toll-like receptor 8” (3M Innovative Properties Company, priority 2003, dated 2008).

Legend:
TLR8 [1] = target: T1, TLR8 (Homo sapiens, UniProt Q9NR97); assay: Dose dependent TLR8-mediated NF-κB-luciferase response in HEK293 cells transfected with TLR8 (Example 5); format: cell-based; set-up: expressed in transfected cells; host or cells: HEK293 (ATCC CRL-1573), pIRES vector, G-418 selected, co-transfected with NFkB-luc reporter
T1 sequence (Q9NR97 27-1041): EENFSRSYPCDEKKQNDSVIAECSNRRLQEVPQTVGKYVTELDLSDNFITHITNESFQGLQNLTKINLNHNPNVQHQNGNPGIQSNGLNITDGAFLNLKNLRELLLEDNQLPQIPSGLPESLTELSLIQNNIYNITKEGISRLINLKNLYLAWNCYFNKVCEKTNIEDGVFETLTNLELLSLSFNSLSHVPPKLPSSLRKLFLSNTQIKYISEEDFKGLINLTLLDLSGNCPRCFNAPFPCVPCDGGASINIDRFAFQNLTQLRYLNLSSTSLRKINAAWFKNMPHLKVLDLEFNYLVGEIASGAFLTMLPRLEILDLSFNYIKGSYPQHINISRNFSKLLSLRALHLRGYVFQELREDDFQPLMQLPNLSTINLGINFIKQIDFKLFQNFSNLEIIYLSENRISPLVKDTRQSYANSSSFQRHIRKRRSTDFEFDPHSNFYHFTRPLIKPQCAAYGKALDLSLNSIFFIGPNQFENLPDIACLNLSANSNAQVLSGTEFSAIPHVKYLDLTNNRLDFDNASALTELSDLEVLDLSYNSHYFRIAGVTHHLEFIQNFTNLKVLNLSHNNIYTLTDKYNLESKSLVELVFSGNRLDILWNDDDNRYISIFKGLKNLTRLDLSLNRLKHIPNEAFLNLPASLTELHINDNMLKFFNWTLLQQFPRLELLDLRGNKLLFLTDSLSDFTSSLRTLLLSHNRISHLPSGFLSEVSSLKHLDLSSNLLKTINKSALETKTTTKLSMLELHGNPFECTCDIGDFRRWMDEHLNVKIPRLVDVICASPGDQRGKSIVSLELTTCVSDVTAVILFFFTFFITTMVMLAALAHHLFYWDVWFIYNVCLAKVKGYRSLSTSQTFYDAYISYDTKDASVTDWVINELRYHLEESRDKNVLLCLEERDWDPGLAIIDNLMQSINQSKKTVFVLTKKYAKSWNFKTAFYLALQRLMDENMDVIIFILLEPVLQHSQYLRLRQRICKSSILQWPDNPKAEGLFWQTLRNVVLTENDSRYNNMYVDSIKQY
Description: Twenty-four hours before transfection, HEK293 cells were adhered to a 10 cm dish (Corning 430167, Corning Inc., Corning, N.Y.) at 37° C., 8% CO2. The cells were co-transfected with (1) pIRES (BD Biosciences Clontech, Palo Alto, Calif.) either (a) unmodified (HEK293-vector) or (b) containing human TLR8 (HEK293-TLR8), and (2) NFkB-luc reporter (Stratagene, La Jolla, Calif.) in a 10:1 ratio with Fugene 6 transfection reagent (Roche Diagnostics Corp., Indianapolis, Ind.) following the manufacturer's instructions. The plates were incubated for 24 hours following transfection and then selected in G-418 (400 μg/mL) for two weeks. The G-418-resistant cells containing either the TLR8 or empty vector were expanded in HEK293 media supplemented with G-418 for stimulation experiments.
The transfected cells were plated in white opaque 96 well plates (Costar 3917, Corning Inc., Corning, N.Y.) at a concentration of 5×10^4 cells per well in 100 μL of HEK293 media and incubated at 37° C., 8% CO2 for 4 hours. The cells were stimulated with 1 μL of IRM compounds at 1 mM in DMSO (final IRM concentration of 10 μM) or 1 μL DMSO as a control. The plates were then incubated an additional 16 hours at 37° C., 5% CO2. Luminescence was measured on an LMAX luminometer (Molecular Devices Corp., Sunnyvale, Calif.).
HEK293 cells were transfected as described in Example 1. HEK293 cultures were incubated with IRM compound or a negative control compound (1,5-dihydro-1-(2-methylpropyl)-4H-imidazo[4,5-c]quinolin-4-one, U.S. Pat. No. 4,698,348, Example 71) at concentrations of 0.1 μM, 0.3 μM, 1.0 μM, 3.0 μM, 10 μM, or 30 μM, or a vehicle control. Cultures were otherwise incubated as described in Example 1. Luciferase signals were read in RLU (Relative Luciferase Units) as described in Example 1.

TLR8 [2] = target: T1, TLR8; assay: NF-κB-luciferase reporter activation in HEK293-TLR8 cells, 10 μM IRM (Example 1); format: cell-based; set-up: expressed in transfected cells; host or cells: HEK293 (ATCC CRL-1573), pIRES vector, G-418 selected, co-transfected with NFkB-luc reporter
Source text: (§1) HEK293 cells, derived from human embryonic kidney cells, may be co-transfected with (1) either a control vector (HEK293-vector) or a vector construct including human TLR8 (HEK293-TLR8), and (2) an NF-κB-luciferase reporter. The NF-κB-luciferase reporter provides a luciferase signal upon NF-κB activation in a transfected cell. Thus, TLR8-mediated NF-κB activity can be detected by exposing the cells transfected with vector and the cells transfected with the TLR8 construct to a test compound, then comparing the luciferase signal of the vector-transfected cells with the luciferase signal of the cells transfected with the TLR8 construct.
(§2) HEK293 cells were cultured in 90% Minimum Essential Medium (MEM) with 2 mM L-glutamine and Earle's Balanced Salt Solution (Invitrogen Corp., Rockville, Md.) adjusted to contain 1.5 g/L sodium bicarbonate, 0.1 mM non-essential amino acids, and 1.0 mM sodium pyruvate; 10% heat-inactivated fetal calf serum. The cells were incubated at 37° C., 8% CO2.
(§3) The cells were co-transfected with (1) pIRES (BD Biosciences Clontech, Palo Alto, Calif.) either (a) unmodified (HEK293-vector) or (b) containing human TLR8 (HEK293-TLR8), and (2) NFkB-luc reporter (Stratagene, La Jolla, Calif.) in a 10:1 ratio with Fugene 6 transfection reagent (Roche Diagnostics Corp., Indianapolis, Ind.) following the manufacturer's instructions.
(§4) The cells were stimulated with 1 μL of IRM compounds at 1 mM in DMSO (final IRM concentration of 10 μM) or 1 μL DMSO as a control. The plates were then incubated an additional 16 hours at 37° C., 5% CO2. Luminescence was measured on an LMAX luminometer (Molecular Devices Corp., Sunnyvale, Calif.).

HEK293-vector = assay: NF-κB-luciferase reporter activation in HEK293-vector control cells, 10 μM IRM (Example 1); format: cell-based, human; settings: Homo sapiens, 16 hours, luciferase signal, vector-transfected cells, read-out: Fold Increase Over DMSO Control, HEK293-vector
Source text: as §1, §2, §3, §4

Fold increase over vehicle (TLR8 [1]; 0.1 μM) [fold] | Fold increase over vehicle (TLR8 [1]; 0.3 μM) [fold] | Fold increase over vehicle (TLR8 [1]; 1.0 μM) [fold] | Fold increase over vehicle (TLR8 [1]; 3.0 μM) [fold] | Fold increase over vehicle (TLR8 [1]; 10 μM) [fold] | Fold increase over vehicle (TLR8 [1]; 30 μM) [fold] | Fold Increase Over DMSO Control, HEK293-TLR8 (TLR8 [2]; 16 hours, luciferase signal, TLR8-transfected cells) [fold] | Fold Increase Over DMSO Control, HEK293-TLR8 / HEK293-vector (TLR8 [2]; ratio of TLR8-transfected to vector-transfected cells) | SMILES | fold induction at 10 µM (HEK293-vector)
1.2 | 2.1 | 4.1 | 5.8 | 7.8 | 9.3 | – | – | CCOCc1nc2c(N)nc3cc(-c4cncc(CO)c4)ccc3c2n1CC(C)(C)O [IRM52, 1-{4-amino-2-(ethoxymethyl)-7-[5-(hydroxymethyl)pyridin-3-yl]-1H-imidazo[4,5-c]quinolin-1-yl}-2-methylpropan-2-ol] | –
0.9 | 1.0 | 1.4 | 2.0 | 3.6 | 7.7 | – | – | CCOCc1nc2c(N)nc3cc(-c4ccc(CO)cc4)ccc3c2n1CC1COC(C)(C)O1 (stereo not drawn) [IRM53, 1-[(2,2-dimethyl-1,3-dioxolan-4-yl)methyl]-2-(ethoxymethyl)-7-(4-hydroxymethylphenyl)-1H-imidazo[4,5-c]quinolin-4-amine] | –
0.9 | 0.9 | 1.2 | 2.6 | 5.9 | 9.2 | – | – | CCOCc1nc2c(N)nc3ccccc3c2n1CC(C)(C)NC(=O)NC1CCCC1 [IRM54, 1-[2-(4-amino-2-ethoxymethyl-1H-imidazo[4,5-c]quinolin-1-yl)-1,1-dimethylethyl]-3-cyclopentylurea] | –
0.7 | 1.1 | 1.0 | 2.9 | 7.2 | 9.9 | – | – | CCCNC(=O)NC(C)(C)Cn1c(COCC)nc2c(N)nc3ccccc3c21 [IRM55, 1-[2-(4-amino-2-ethoxymethyl-1H-imidazo[4,5-c]quinolin-1-yl)-1,1-dimethylethyl]-3-propylurea] | –
1.2 | 1.8 | 5.9 | 10.0 | 24.4 | 27.9 | – | – | CCOCc1nc2c(N)nc3cc(-c4ccncc4)ccc3c2n1CC(C)(C)O [IRM56, 1-[4-amino-2-ethoxymethyl-7-(pyridin-4-yl)-1H-imidazo[4,5-c]quinolin-1-yl]-2-methylpropan-2-ol] | –
1.4 | 1.7 | 3.1 | 7.2 | 10.4 | 12.5 | – | – | CCOCc1nc2c(N)nc3cc(-c4cccnc4)ccc3c2n1CC(O)CO (stereo not drawn) [IRM57, 3-[4-amino-2-(ethoxymethyl)-7-(pyridin-3-yl)-1H-imidazo[4,5-c]quinolin-1-yl]propane-1,2-diol] | –
0.7 | 0.8 | 0.9 | 3.2 | 6.9 | 7.8 | – | – | CCOCc1nc2c(N)nc3cc(-c4cccc(C(=O)N5CCCC5)c4)ccc3c2n1CC(C)(C)O [IRM58, {3-[4-amino-2-ethoxymethyl-1-(2-hydroxy-2-methylpropyl)-1H-imidazo[4,5-c]quinolin-7-yl]phenyl}pyrrolidin-1-ylmethanone] | –
1.0 | 1.3 | 2.1 | 5.5 | 9.5 | 9.8 | – | – | CCc1nc2c(N)nc3cc(-c4ccncc4)ccc3c2n1CC(C)(C)O [IRM59, 1-[4-amino-2-ethyl-7-(pyridin-4-yl)-1H-imidazo[4,5-c]quinolin-1-yl]-2-methylpropan-2-ol] | –
1.1 | 1.0 | 1.1 | 2.7 | 6.2 | 9.1 | – | – | CCOCc1nc2c(N)nc3c(c2n1NC(C)C)CCCC3 [IRM60, 2-ethoxymethyl-N^1-isopropyl-6,7,8,9-tetrahydro-1H-imidazo[4,5-c]quinoline-1,4-diamine] | –
1.0 | 1.1 | 2.9 | 6.7 | 10.3 | 9.4 | – | – | CCOCc1nc2c(N)nc3cc(-c4ccc(C(=O)N(C)OC)cc4)ccc3c2n1CC(C)(C)O [IRM61, 4-[4-amino-2-ethoxymethyl-1-(2-hydroxy-2-methylpropyl)-1H-imidazo[4,5-c]quinolin-7-yl]-N-methoxy-N-methylbenzamide] | –
– | – | – | – | – | – | 8.64 | 10.2 | CCOCc1nc2c(N)nc3c(c2n1CC(C)(C)O)CCCC3 [IRM 1, 4-amino-2-ethoxymethyl-α,α-dimethyl-6,7,8,9-tetrahydro-1H-imidazo[4,5-c]quinoline-1-ethanol] | 0.85
